Tests used:
[1] = Body weight of DU145 tumor nude mice; conditions: for Body Weight, mean value / Decrease rate (body weight) / Decrease in body weight: 3×/w, 4 w;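 as to all read-outs here: dosing started once xenografts reached 150-200 mm^3, with mice randomized into three groups, loss of body weight served as an indirect sign of drug toxicity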
Experimental: DU145 (the 3rd generation) tumors in the rapid proliferation stage inoculated in the axilla of nude mice were cut into tumor lumps with a size of 1 mm*1 mm*1 mm and then were inoculated subcutaneously to the right limb of nude mice using a trocar under a sterile condition. When the tumors grow to 150-200 mm^3, the mice were randomly divided into three groups and then administrated with the compounds for 4 weeks. The major diameter (a) and the minor diameter (b) of the tumors were measured 2 or 3 times a week. The tumor volume (TV) was calculated with the following equation: TV=½×a×b^2. Tumors were stripped and weighted at Day 28 and the tumor inhibition rate was calculated using the following equation: (tumor weight of control−tumor weight of experimental group)/tumor weight of control×100%.
The nude mice were divided into 3 groups with 4 mice per group when the tumors averagely grew to about 185-200 mm^3, depending on the growth regularity of the tumor and the dosage regimen.
G1: positive drug group: Everolimus (5 mg/kg, qw, 4 w, 3×/w); administration route: intragastrical administration;

[2] = Body weight of NCI-H460 tumor nude mice; conditions: for Body Weights, mean value / Decrease rate (body weight) / Decrease in body weight: everolimus 5 mg/kg, compound I-1 6.8 mg/kg, qw 4×;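 as to all read-outs here: Tumor-bearing mice dosed for 4 weeks once tumors reached 150–200 mm^3, with a vehicle control group, and body weight loss taken as an indirect sign of drug toxicity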
Experimental: NCI-H460 (the 3rd generation) tumors in the rapid proliferation stage inoculated in the axilla of nude mice were cut into tumor lumps with a size of 1 mm*1 mm*1 mm and then were inoculated subcutaneously to the right limb of nude mice using a trocar under a sterile condition. When the tumors grew to 150˜200 mm^3, the mice were divided into groups and then administrated with the compounds for 4 weeks. The major diameter (a) and the minor diameter (b) of the tumors were measured two or three times a week. The tumor volume (TV) and the relative tumor proliferation rate (T/C) were calculated. The equation for calculating the tumor volume is: TV=½×a×b^2. The equation for calculating the relative tumor proliferation rate is T/C=TRTC/CRTV (TRTC: average relative tumor volume in the treatment group; CRTV: average relative tumor volume in the vehicle control group). Tumors were stripped and weighted at Day 28 and the tumor-inhibition rate was calculated with the following equation: (tumor weight of control−tumor weight of experimental group)/tumor weight of control×100%.
Grouping method: the mice were divided into 3 groups with 6 mice per group when the tumors averagely grew to about 195 mm^3, depending on the growth regularity of the tumor and the dosage regimen. Administration route: intragastrical administration.
G1: Control (vehicle, qw 4×, iv)
G2: Positive drug group: Everolimus (5 mg/kg, qw 4×, iv)

[3] = Day 10, G3 compound I-1 1.7 mg/kg tail vein injection
[4] = Day 14, G2 compound I-1 3.4 mg/kg tail vein injection
[5] = Day 14, G3 compound I-1 1.7 mg/kg tail vein injection
[6] = Day 17, G2 compound I-1 3.4 mg/kg tail vein injection
[7] = Day 17, G3 compound I-1 1.7 mg/kg tail vein injection
[8] = Day 21, G2 compound I-1 3.4 mg/kg tail vein injection
[9] = Day 21, G3 compound I-1 1.7 mg/kg tail vein injection
[10] = Day 24, G2 compound I-1 3.4 mg/kg tail vein injection
[11] = Day 24, G3 compound I-1 1.7 mg/kg tail vein injection
[12] = Day 28, G2 compound I-1 3.4 mg/kg tail vein injection
[13] = Day 28, G3 compound I-1 1.7 mg/kg tail vein injection

Structure (SMILES): CO[C@H]1C[C@@H]2CC[C@@H](C)[C@@](O)(O2)C(=O)C(=O)N2CCCC[C@H]2C(=O)OC([C@H](C)C[C@@H]2CC[C@@H](OCCOC(=O)CSC[C@H](NC(=O)CC[C@H](N)C(=O)O)C(=O)NCC(=O)O)[C@H](OC)C2)CC(=O)[C@H](C)/C=C(\C)[C@@H](O)[C@@H](OC)C(=O)[C@H](C)C[C@@H](C)\C=C/C=C/C=C/1C (stereo partly shown) [Compound I-1]
- Body Weight, mean value [1, 3]: 27.18 g
- Decrease rate (body weight) [1, 3]: −1.18%
- Decrease in body weight ([1]; Day 10 vs Day 0, G2 compound I-1 3.4 mg/kg tail vein injection): -0.85 g
- Decrease in body weight ([1]; Day 10 vs Day 0, G3 compound I-1 1.7 mg/kg tail vein injection): -0.32 g
- Body Weight, mean value [1, 4]: 26.59 g
- Decrease rate (body weight) [1, 4]: −5.12%
- Body Weight, mean value [1, 5]: 27.69 g
- Decrease rate (body weight) [1, 5]: −3.10%
- Decrease in body weight ([1]; Day 14 vs Day 0, G2 compound I-1 3.4 mg/kg tail vein injection): -1.30 g
- Decrease in body weight ([1]; Day 14 vs Day 0, G3 compound I-1 1.7 mg/kg tail vein injection): -0.83 g
- Body Weight, mean value [1, 6]: 26.34 g
- Decrease rate (body weight) [1, 6]: −4.12%
- Body Weight, mean value [1, 7]: 27.81 g
- Decrease rate (body weight) [1, 7]: −3.54%
- Decrease in body weight ([1]; Day 17 vs Day 0, G2 compound I-1 3.4 mg/kg tail vein injection): -1.04 g
- Decrease in body weight ([1]; Day 17 vs Day 0, G3 compound I-1 1.7 mg/kg tail vein injection): -0.95 g
- Body Weight, mean value [1, 8]: 26.84 g
- Decrease rate (body weight) [1, 8]: −6.09%
- Body Weight, mean value [1, 9]: 28.10 g
- Decrease rate (body weight) [1, 9]: −4.61%
- Decrease in body weight ([1]; Day 21 vs Day 0, G2 compound I-1 3.4 mg/kg tail vein injection): -1.54 g
- Decrease in body weight ([1]; Day 21 vs Day 0, G3 compound I-1 1.7 mg/kg tail vein injection): -1.24 g
- Body Weight, mean value [1, 10]: 26.58 g
- Decrease rate (body weight) [1, 10]: −5.08%
- Body Weight, mean value [1, 11]: 28.12 g
- Decrease rate (body weight) [1, 11]: −4.68%
- Decrease in body weight ([1]; Day 24 vs Day 0, G2 compound I-1 3.4 mg/kg tail vein injection): -1.29 g
- Decrease in body weight ([1]; Day 24 vs Day 0, G3 compound I-1 1.7 mg/kg tail vein injection): -1.26 g
- Body Weight, mean value [1, 12]: 26.96 g
- Decrease rate (body weight) [1, 12]: −6.57%
- Body Weight, mean value [1, 13]: 28.27 g
- Decrease rate (body weight) [1, 13]: −5.26%
- Decrease in body weight ([1]; Day 28 vs Day 0, G2 compound I-1 3.4 mg/kg tail vein injection): -1.66 g
- Decrease in body weight ([1]; Day 28 vs Day 0, G3 compound I-1 1.7 mg/kg tail vein injection): -1.41 g
- toxic and side effect ([1]; injection administration of compound I-1 (3.4 and 1.7 mg/kg), judged from body weight): does not result in obvious toxic and side effect
- Body Weights, mean value ([2]; Day 0): 26.20 g
- Body Weights, mean value ([2]; Day 3): 25.49 g
- Decrease rate (body weight) ([2]; Day 3): 2.73%
- Decrease in body weight ([2]; Day 3 vs Day 0): 0.72 g
- Body Weights, mean value ([2]; Day 7): 26.79 g
- Decrease rate (body weight) ([2]; Day 7): −2.23%
- Decrease in body weight ([2]; Day 7 vs Day 0): -0.58 g
- Body Weights, mean value ([2]; Day 10): 26.20 g
- Decrease rate (body weight) ([2]; Day 10): 0.00%
- Decrease in body weight ([2]; Day 10 vs Day 0): 0.00 g
- Body Weights, mean value ([2]; Day 14): 27.74 g
- Decrease rate (body weight) ([2]; Day 14): −5.87%
- Decrease in body weight ([2]; Day 14 vs Day 0): -1.54 g
- Body Weights, mean value ([2]; Day 17): 27.84 g
- Decrease rate (body weight) ([2]; Day 17): −6.24%
- Decrease in body weight ([2]; Day 17 vs Day 0): -1.64 g
- Body Weights, mean value ([2]; Day 21): 28.42 g
- Decrease rate (body weight) ([2]; Day 21): −8.46%
- Decrease in body weight ([2]; Day 21 vs Day 0): -2.22 g
- Body Weights, mean value ([2]; Day 24): 28.09 g
- Decrease rate (body weight) ([2]; Day 24): −7.20%
- Decrease in body weight ([2]; Day 24 vs Day 0): -1.89 g
- Body Weights, mean value ([2]; Day 28): 29.00 g
- Decrease rate (body weight) ([2]; Day 28): −10.68%
- Decrease in body weight ([2]; Day 28 vs Day 0): -2.80 g
- toxic and side effect in vivo ([2]; judged from body weight, compound I-1 6.8 mg/kg vs everolimus 5 mg/kg): significantly lower than that of everolimus
